Data: US20110059986A1, “INTERMITTENT DOSING REGIMEN FOR OVERWEIGHT AND OBESE SUBJECTS” (priority 2004, published 2011)

Columns and labels:
Format in all cases: in vivo
obese Beagle dogs [1] = experiment: Efficacy study with continuous administration of mitratapide during 8 weeks; conditions: oral
Procedure: FIG. 1 is a graph displaying the results of an efficacy study wherein the apoB secretion/MTP inhibitor mitratapide was administered during 8 weeks to a group of obese Beagle dogs. The four curves illustrate the effect on body weight by plotting the ‘(%) body weight relative to the weight at the start’ when mitratapide was administered with a dosage of 0 mg per kg body weight (A curve), 0.16 mg per kg body weight (B curve), 0.31 mg per kg body weight (C curve) and 0.63 mg per kg body weight in function of the duration of the study.
The efficacy of the apoB secretion/MTP inhibitor mitratapide for the reduction of body weight was studied in a blind, randomised study with 4 parallel groups of 6 dogs each. Three groups were treated orally with three different doses of mitratapide and one group was treated orally with the vehicle and served as a placebo group. The vehicle solution contained the same ingredients as the test formulations with omission of the test substance mitratapide.
The treatment groups were:
placebo group A treated orally with vehicle
group B treated orally with 0.16 mg mitratapide per kg body weight
group C treated orally with 0.31 mg mitratapide per kg body weight
group D treated orally with 0.63 mg mitratapide per kg body weight
The test subjects were healthy, male Beagle dogs with a body weight of 13.6 to 22.6 kg at the start of the experiment and between 1 and 8 years old. All dogs were treated orally using a 5 ml syringe, once daily, in the morning for a period of 8 weeks (56 days) depending on their body weight. Body weight was measured once weekly on days 0, 7, 14, 21, . . . up to day 56. The volume of test formulation was 1 ml per 4 kg body weight. The test formulation was an aqueous 10% hydroxypropyl-β-cyclodextrin solution containing no mitratapide, 0.63 mg mitratapide per ml, 1.25 mg mitratapide per ml or 2.5 mg mitratapide per ml. Each test subject had free access (in volume and time) to commercial dog feed (Bento Kronen Professional Power) and water during the 8 week study. […]

obese Beagle dogs [2] = experiment: 4 w-4 w-4 w intermittent dosing regimen study; conditions: 4 w-4 w-4 w regimen, 0.63 mg/kg oral once daily
Procedure: Mitratapide was administered for a first period of four weeks at a dosage of 0.63 mg/kg body weight, withheld for four weeks and again administered for four weeks at a dosage of 0.63 mg/kg body weight. At day 29, the feeding was restricted from ad libitum access to food, to a maintenance diet having a caloric content equal to the caloric expenditure of the test subject.
The effect of a 4 w-4 w-4 w intermittent dosing regimen on 15 obese Beagle dogs, with a body weight of 16% or more above optimal body weight, was studied. The dogs were treated with mitratapide oral solution at a daily single dose of 0.63 mg/kg body weight for two periods of 28 consecutive days (4 weeks) with an intermediate period of 28 consecutive days without treatment.
The test formulation comprising mitratapide was an aqueous 10% hydroxypropyl-β-cyclodextrin solution containing 2.5 mg mitratapide per ml and was administered once daily in an amount of 1 ml per 4 kg body weight. The daily dose was mixed into a small portion of feed and presented to the dog. The rest of the feed was only provided after this portion was consumed. […] The test solution comprising mitratapide was no longer administered and the body weight of the animals was further monitored during the follow-up procedure ending on day 112. […] Body weight of each test animal was measured on days 0, 14, 28, 42, 56, 84 and 112. […]

obese Beagle dogs [3] = experiment: Comparison of 3 w-2 w-3 w and 4 w-4 w-4 w dosing regimen; conditions: 0.63 mg/kg oral gavage once daily
Procedure: Thirty two healthy obese Beagle dogs of both sexes were included in a study of two different intermittent treatment regimens: a 3 w-2 w-3 w regimen and a 4 w-4 w-4 w regimen. At the start of the study, the dogs weighed between 12.5 and 26 kg which was considered as being more than 20% higher than the ideal body weight. The study was conducted in four groups, two treated groups containing 10 obese Beagle dogs and one placebo group containing 12 obese Beagle dogs. This placebo group of 12 dogs was subdivided in two sets of 6 dogs. One placebo group followed the 3 w-2 w-3 w regimen and the other placebo group the 4 w-4 w-4 w regimen.
The test compound mitratapide was provided as a polyethylene glycol 400 (PEG 400) solution comprising 5 mg mitratapide per ml. The test solution was administered once daily in the morning by oral gavage. The volume of test formulations was 0.125 ml per kg body weight so that mitratapide was administered with a dosage of 0.63 mg/kg body weight. The body weight was measured weekly during the treatment periods to adjust the amount of test formulation. The placebo groups received water as the test formulation. Each test subject had free access (in volume and time) to commercial dog feed (Bento Kronen premium Regular dog pellets) during the first administration period. The first administration period was followed by a period during which administration of mitratapide was withheld. At the same time, the dogs were put on a maintenance diet having a caloric content equal to their caloric expenditure. […] At the start of the second administration period, the dogs were again administered a mitratapide solution with a dosage of 0.63 mg/kg body weight. The dogs were kept on the same maintenance diet as during the previous period. All dogs had free access to drinking water throughout the entire study. Body weight of each test animal was measured weekly on days 0, 7, 14, 21 and so on till day 84. The effect on body weight for each of the four dosage studies is plotted in FIG. 3. […] The reduction of body weight of the two placebo groups was less than 2% after 84 days.

CCC(C)n1ncn(-c2ccc(N3CCN(c4ccc(OCC5COC(CSc6nncn6C)(c6ccc(Cl)cc6)O5)cc4)CC3)cc2)c1=O (stereo not drawn) [mitratapide, (−)-[2S-[2α, 4α(S*)]]-4-[4-[4-[4-[[2-(4-chlorophenyl)-2-[[(4-methyl-4H-1,2,4-triazol-3-yl)thio]methyl]-1,3-dioxolan-4-yl]methoxy]-phenyl]-1-piperazinyl]phenyl]-2,4-dihydro-2-(1-methylpropyl)-3H-1,2,4-triazol-3-one]
effect on body weight at 0.63 mg/kg compared with lower dose (obese Beagle dogs [1]; 0.63 mg/kg once daily for 8 weeks, free access to feed): more effective in reducing body weight
course of body weight reduction (levelling off) (obese Beagle dogs [1]; 0.63 mg/kg once daily, continuous for 8 weeks (curve D)): started to level off after three weeks
daily dosage necessary to decrease body weight (obese Beagle dogs [1]; once daily for 8 weeks (56 days), free access to feed, doses 0.16, 0.31, 0.63 mg/kg tested): at least 0.31 mg/kg
mean reduction of body weight (obese Beagle dogs [2]; maintenance diet from the second period, after 84 days): 9%
course of body weight reduction (levelling off) (obese Beagle dogs [2]; two treatment periods): no body weight reduction levelling off effect was observed
course of body weight reduction (levelling off) (obese Beagle dogs [3]; 3 w-2 w-3 w and 4 w-4 w-4 w regimens): no body weight reduction levelling off effect was observed
mean effect on body weight reduction (obese Beagle dogs [3]; 3 w-2 w-3 w regimen, day 56): 11%
mean effect on body weight reduction (obese Beagle dogs [3]; 4 w-4 w-4 w regimen, day 84): 13%
